This test has as its system BDF1 mice, P388 leukemia ip, median survival T/C. As to the kind of experiment: NCI In Vivo Anticancer Drug Screen. Data for tumor model P388 Leukemia (intraperitoneal) in B6D2F1 (BDF1) mice. The conditions noted are these: endpoint: median survival time, higher = longer survival. As for the experimental part:
The antitumor activity of compounds was measured in mice bearing transplantable tumors. Survival or tumor size were measured and the results are expressed as the measurement made in the treated group (T) divided by the measurement made in the vehicle treated control group (C). The tumor model used in this assay is P388 Leukemia (intraperitoneal) in B6D2F1 (BDF1) mice

[1] abbreviates: dose: 200.0 mg/kg/injection, schedule: Q01DX009 (ip), vehicle: saline.
Setting [2] is: dose: 50.0 mg/kg/injection, schedule: Q01DX009 (ip), vehicle: saline with Tween-80.
Where [3] appears, read: dose: 100.0 mg/kg/injection, schedule: Q01DX009 (ip), vehicle: saline with Tween-80.
Setting [4] is: dose: 200.0 mg/kg/injection, schedule: Q01DX009 (ip), vehicle: saline with Tween-80.
[5] abbreviates: dose: 100.0 mg/kg/injection, schedule: Q04DX003 (ip), vehicle: saline with Tween-80.
Setting [6] is: dose: 200.0 mg/kg/injection, schedule: Q04DX003 (ip), vehicle: saline with Tween-80.
Setting [7] is: dose: 400.0 mg/kg/injection, schedule: Q01DX009 (ip), vehicle: saline with Tween-80.
The mark [8] stands for this setting: dose: 400.0 mg/kg/injection, schedule: Q04DX003 (ip), vehicle: saline with Tween-80.

Inconclusive results and toxic doses are left out.

Turning to `NCCNCC[OH2+].NCCNCC[OH2+].[Cu+2].[O-][Cl+3]([O-])([O-])[O-]`, the T/C (dose: 12.5 mg/kg/injection, schedule: Q01DX009 (ip), vehicle: saline) was 100 % of control and the T/C (dose: 25.0 mg/kg/injection, schedule: Q01DX009 (ip), vehicle: saline) is 105 % of control.
`CC1=NC(C(=O)O)C(=O)O1` (stereo not given): the T/C by setting is: (dose: 50.0 mg/kg/injection, schedule: Q01DX009 (ip), vehicle: saline) 109 % of control; (dose: 100.0 mg/kg/injection, schedule: Q01DX009 (ip), vehicle: saline) 104 % of control; (dose: 100.0 mg/kg/injection, schedule: Q04DX003 (ip), vehicle: saline) 95 % of control; under setting [1], 100 % of control; (dose: 200.0 mg/kg/injection, schedule: Q04DX003 (ip), vehicle: saline) 100 % of control; (dose: 400.0 mg/kg/injection, schedule: Q04DX003 (ip), vehicle: saline) 87 % of control.
In the case of `CC1CN1P(=S)(N1CCCC1)N1CC1C` (stereo not given), the T/C is 112 % of control (dose: 17.8 mg/kg/injection, schedule: Q01DX009 (ip), vehicle: saline with Tween-80); 114 % of control (dose: 26.6 mg/kg/injection, schedule: Q01DX009 (ip), vehicle: saline with Tween-80); 168 % of control (dose: 40.0 mg/kg/injection, schedule: Q01DX009 (ip), vehicle: saline with Tween-80); 150 % of control under setting [2]; 214 % of control (dose: 60.0 mg/kg/injection, schedule: Q01DX009 (ip), vehicle: saline with Tween-80); 170 % of control under setting [3].
`CCCCCCCCCC(=O)NN`: the T/C was 95 % of control (dose: 50.0 mg/kg/injection, schedule: Q01DX001 (ip), vehicle: saline sonified); 104 % of control (dose: 100.0 mg/kg/injection, schedule: Q01DX001 (ip), vehicle: saline sonified); 104 % of control (dose: 200.0 mg/kg/injection, schedule: Q01DX001 (ip), vehicle: saline sonified).
Turning to `COc1cc(Nc2nc(Cl)ncc2[N+](=O)[O-])cc(OC)c1OC`, the T/C was 104 % of control (dose: 100.0 mg/kg/injection, schedule: Q01DX001 (ip), vehicle: saline with Tween-80); 100 % of control (dose: 200.0 mg/kg/injection, schedule: Q01DX001 (ip), vehicle: saline with Tween-80); 100 % of control (dose: 400.0 mg/kg/injection, schedule: Q01DX001 (ip), vehicle: saline with Tween-80).
Regarding `NC(N)=Nc1cccc(C(F)(F)F)c1`, the T/C was 94 % of control under setting [2], 100 % of control under setting [3] and 109 % of control under setting [4].
For `CC1(c2cccc(N)c2)OCCO1`, the T/C is, setting by setting: under setting [3], 100 % of control; under setting [5], 90 % of control; under setting [4], 95 % of control; under setting [6], 109 % of control; under setting [7], 90 % of control; under setting [8], 109 % of control.
Turning to `O=C1C(Cl)CCCCC1Cl` (stereo not given), the T/C runs as follows: (dose: 50.0 mg/kg/injection, schedule: Q01DX009 (ip), vehicle: Klucel (hydroxypropylcellulose) (HPC)) 100 % of control; (dose: 100.0 mg/kg/injection, schedule: Q01DX009 (ip), vehicle: Klucel (hydroxypropylcellulose) (HPC)) 100 % of control; (dose: 200.0 mg/kg/injection, schedule: Q01DX009 (ip), vehicle: Klucel (hydroxypropylcellulose) (HPC)) 115 % of control.
Regarding `O=S1(=O)C=C(Cl)C2C3CC(C(Cl)C3Cl)C21` (stereo not given), the T/C (dose: 7.5 mg/kg/injection, schedule: Q01DX009 (ip), vehicle: saline with Tween-80) is 100 % of control; the T/C (dose: 15.0 mg/kg/injection, schedule: Q01DX009 (ip), vehicle: saline with Tween-80) is 113 % of control; the T/C (dose: 30.0 mg/kg/injection, schedule: Q01DX009 (ip), vehicle: saline with Tween-80) was 104 % of control.
As for `CC1(C)CCCC(Cl)(C(Cl)c2ccccc2)C1=O` (stereo not given), the T/C is 100 % of control (dose: 75.0 mg/kg/injection, schedule: Q01DX001 (ip), vehicle: other); 95 % of control (dose: 150.0 mg/kg/injection, schedule: Q01DX001 (ip), vehicle: other); 95 % of control (dose: 300.0 mg/kg/injection, schedule: Q01DX001 (ip), vehicle: other).
Take `COc1ccc(NC(C)=O)c(/C=N/Nc2ccc([N+](=O)[O-])cc2[N+](=O)[O-])c1`: the T/C (dose: 50.0 mg/kg/injection, schedule: Q04DX002 (ip), vehicle: saline with Tween-80) was 89 % of control; the T/C (dose: 100.0 mg/kg/injection, schedule: Q04DX002 (ip), vehicle: saline with Tween-80) is 106 % of control; the T/C (dose: 200.0 mg/kg/injection, schedule: Q04DX002 (ip), vehicle: saline with Tween-80) was 106 % of control.
Regarding `O=C(O)C(=O)O.OO.OO.OO.[Nb]`, the T/C under setting [1] is 86 % of control.
Take `CC(=O)OCc1cc2ccccc2nc1C`: the T/C by setting is: under setting [5], 100 % of control; under setting [4], 95 % of control; under setting [6], 104 % of control; under setting [7], 95 % of control; under setting [8], 100 % of control.
In the case of `C=C1CC[N+]2(CC(C)C)CCCC12` (stereo not given), the T/C was 107 % of control (dose: 12.5 mg/kg/injection, schedule: Q04DX003 (ip), vehicle: saline); 102 % of control (dose: 25.0 mg/kg/injection, schedule: Q04DX003 (ip), vehicle: saline); 106 % of control (dose: 50.0 mg/kg/injection, schedule: Q04DX003 (ip), vehicle: saline).
For `c1ccc2c(c1)Cn1c-2nc2ccccc21`, the T/C (dose: 100.0 mg/kg/injection, schedule: Q04DX003 (ip), vehicle: other) was 118 % of control; the T/C (dose: 200.0 mg/kg/injection, schedule: Q04DX003 (ip), vehicle: other) is 109 % of control; the T/C (dose: 400.0 mg/kg/injection, schedule: Q04DX003 (ip), vehicle: other) was 113 % of control.
For the compound `Cc1cc(O)n(Cc2ccccc2)c(=O)c1`, the T/C reads like this: under setting [5], 102 % of control; under setting [6], 87 % of control; under setting [8], 107 % of control.
With `CC(C)=CCC(OC(=O)C=C(C)C)C1=CC(=O)c2c(O)ccc(O)c2C1=O` (stereo not given), the T/C (dose: 1.25 mg/kg/injection, schedule: Q01DX009 (ip), vehicle: carboxymethylcellulose (CMC)) was 100 % of control; the T/C (dose: 2.5 mg/kg/injection, schedule: Q01DX009 (ip), vehicle: carboxymethylcellulose (CMC)) is 95 % of control; the T/C (dose: 3.12 mg/kg/injection, schedule: Q01DX009 (ip), vehicle: water) is 118 % of control; the T/C (dose: 6.25 mg/kg/injection, schedule: Q01DX009 (ip), vehicle: water) is 113 % of control; the T/C (dose: 6.25 mg/kg/injection, schedule: Q04DX003 (ip), vehicle: water) is 122 % of control; the T/C (dose: 12.5 mg/kg/injection, schedule: Q04DX003 (ip), vehicle: water) is 122 % of control.
For `O=c1oc2c(CN3CCCC3)c(O)ccc2c2c1CCCC2`, the T/C (dose: 1.0 mg/kg/injection, schedule: Q01DX009 (ip), vehicle: Klucel (hydroxypropylcellulose) (HPC)) was 98 % of control; the T/C (dose: 2.0 mg/kg/injection, schedule: Q01DX009 (ip), vehicle: Klucel (hydroxypropylcellulose) (HPC)) is 109 % of control; the T/C (dose: 4.0 mg/kg/injection, schedule: Q01DX009 (ip), vehicle: Klucel (hydroxypropylcellulose) (HPC)) is 104 % of control; the T/C (dose: 8.0 mg/kg/injection, schedule: Q01DX009 (ip), vehicle: Klucel (hydroxypropylcellulose) (HPC)) is 109 % of control; the T/C (dose: 16.0 mg/kg/injection, schedule: Q01DX009 (ip), vehicle: Klucel (hydroxypropylcellulose) (HPC)) was 98 % of control; the T/C (dose: 32.0 mg/kg/injection, schedule: Q01DX009 (ip), vehicle: Klucel (hydroxypropylcellulose) (HPC)) was 99 % of control.
Consider `O=C(C1=Cc2ccccc2OC1)N1CCN(C(=O)C2=Cc3ccccc3OC2)CC1`, for which the T/C runs as follows: under setting [5], 91 % of control; under setting [6], 91 % of control; under setting [8], 86 % of control.
For `Cc1cccc2cc3cccc(C)[n+]3cc12`, the T/C (dose: 5.0 mg/kg/injection, schedule: Q01DX010 (ip), vehicle: saline) is 100 % of control.
For `O=C(CSc1nc2ccccc2s1)c1sc2sc3ccccc3[n+]2c1[O-]`, the T/C is, setting by setting: (dose: 50.0 mg/kg/injection, schedule: Q01DX005 (ip), vehicle: saline with Tween-80) 97 % of control; (dose: 100.0 mg/kg/injection, schedule: Q01DX005 (ip), vehicle: saline with Tween-80) 97 % of control; (dose: 200.0 mg/kg/injection, schedule: Q01DX005 (ip), vehicle: saline with Tween-80) 87 % of control.

(Values after PubChem BioAssay AID328 (DTP/NCI, 2004).)
